Measured values reported in patent US12091411B2, “IRAK degraders and uses thereof” (Kymera Therapeutics, Inc., priority 2022, dated 2024).
Like-named read-outs stand apart in the source and are kept apart here.

Biological target: T1, IRAK4 (Homo sapiens, UniProt Q9NWZ3)
T1 construct: Degradation of IRAK4 in OCI-LY10 was quantitatively measured using Meso Scale Discovery technology; endogenous in cells; host or cells: OCI-LY10
T1 sequence (Q9NWZ3 1-460): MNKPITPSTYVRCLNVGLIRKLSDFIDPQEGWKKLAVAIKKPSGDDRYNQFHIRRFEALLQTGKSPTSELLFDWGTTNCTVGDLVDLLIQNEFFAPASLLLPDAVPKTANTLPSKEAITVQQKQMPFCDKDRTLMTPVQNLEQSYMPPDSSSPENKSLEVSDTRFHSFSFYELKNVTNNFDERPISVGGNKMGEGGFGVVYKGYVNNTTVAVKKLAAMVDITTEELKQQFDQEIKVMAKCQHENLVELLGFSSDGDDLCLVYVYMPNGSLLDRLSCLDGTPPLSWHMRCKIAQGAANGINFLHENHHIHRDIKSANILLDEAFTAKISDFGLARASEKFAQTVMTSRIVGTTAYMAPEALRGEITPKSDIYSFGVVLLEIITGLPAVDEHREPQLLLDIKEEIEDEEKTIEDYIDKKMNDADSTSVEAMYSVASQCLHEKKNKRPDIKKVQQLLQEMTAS
Assay: IRAK4 MSD Degradation in OCI-LY10
Format: cell-based
Settings: OCI-LY10 cells, MSD
How it was run: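 DC50, from a three-parameter logistic fit and reported as letter bins A (<0.01 μM), B, C, D (>0.2 μM or not tested), reflects IRAK4 loss measured by MSD electrochemiluminescence in OCI-LY10 lysates. Treatment: 8 doses, 1:3 steps, top 1 to 10 μM, 4 to 24 h, 37 °C.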

[1] = 4 hrs incubation, read-out: IRAK4 degradation in OCI-LY10 at 4 hrs: DC50
[2] = 24 hrs incubation, read-out: IRAK4 degradation in OCI-LY10 at 24 hrs: DC50

| Structure (SMILES) | DC50 [1] [µM] | DC50 [2] [µM] |
| --- | --- | --- |
| Cn1c(=O)n(C2CCC(=O)NC2=O)c2cccc(N3CCN(CC4COC5(C4)CN(C[C@H]4CC[C@H](n6cc7cc(NC(=O)c8cccc(C(F)(F)F)n8)ccc7n6)CC4)C5)CC3)c21 (stereo partly shown) [I-665] | > 0.2 |  |
| O=C1CCN(c2cncc3cc(C#CCOC4CCN(C[C@H]5CC[C@H](n6cc(NC(=O)c7cnn8ccc(N9C[C@H]%10C[C@@H]9CO%10)nc78)c(C(F)F)n6)CC5)CC4)ccc23)C(=O)N1 [I-11] | > 0.2 | > 0.2 |
| Cn1c(=O)n(C2CCC(=O)NC2=O)c2cccc(CCCOC3CCN(C[C@H]4CC[C@H](n5cc(NC(=O)c6cccc(C(F)(F)F)n6)c(C(F)F)n5)CC4)CC3)c21 (stereo partly shown) [I-212] | > 0.2 | > 0.2 |
| Cn1c(=O)n(C2CCC(=O)NC2=O)c2cccc([C@@H]3CCN(C[C@H]4CC[C@H](n5cc6cc(NC(=O)c7cccc(C(F)F)n7)ncc6n5)CC4)C[C@H]3F)c21 (stereo partly shown) [I-641] | > 0.2 | < 0.01 |
| Cn1c(=O)n(C2CCC(=O)NC2=O)c2cccc(C#CCOC3CCN(C[C@H]4CC[C@H](n5cc(NC(=O)c6ccn7ccc(N8C[C@@H]9C[C@H]8CO9)nc67)c(C(F)F)n5)CC4)CC3)c21 (stereo partly shown) [I-232] | > 0.2 | > 0.2 |
| O=C1CCN(c2cncc3c(C#CCO[C@@H]4CCN(C[C@H]5C[C@H](n6cc(NC(=O)c7cnn8ccc(N9C[C@H]%10C[C@@H]9CO%10)nc78)c(C(F)F)n6)C5)C[C@@H]4F)cccc23)C(=O)N1 [I-52] | < 0.01 | > 0.2 |
| Cn1c(=O)n(C2CCC(=O)NC2=O)c2cccc([C@H]3CCN(C[C@H]4CC[C@H](n5cc6cc(NC(=O)c7cccc(C#N)n7)c(C(C)(C)O)cc6n5)CC4)C[C@@H]3F)c21 (stereo partly shown) [I-650] | > 0.2 | > 0.2 |
| Cn1c(=O)n(C2CCC(=O)NC2=O)c2cccc(N3CCN([C@@H]4CCN(C[C@H]5CC[C@H](n6cc(NC(=O)c7cnn8ccc(N9CC%10(COC%10)C9)nc78)c(C(F)F)n6)CC5)CC4(F)F)CC3)c21 (stereo partly shown) [I-746] | > 0.2 | > 0.2 |
| Cn1c(=O)n(C2CCC(=O)NC2=O)c2cccc(C#CCN3CCN(C[C@H]4CC[C@H](n5cc(NC(=O)c6cccc7ccc(N8CCC8)nc67)c(C(F)F)n5)CC4)CC3)c21 (stereo partly shown) [I-335] | > 0.2 | > 0.2 |
| CN(C[C@]1(O)CC[C@@H](n2cc(NC(=O)c3cnn4cccnc34)c(C(F)F)n2)CC1)C1CCN(c2cccc3c2n(C)c(=O)n3C2CCC(=O)NC2=O)CC1 (stereo partly shown) [I-487] | > 0.2 | > 0.2 |
| Cn1c(=O)n(C2CCC(=O)NC2=O)c2cccc(C3=CCN(C[C@H]4CC[C@H](n5cc6cc(NC(=O)c7cccc(C(F)(F)F)n7)ccc6n5)CC4)CC3(F)F)c21 (stereo partly shown) [I-454] | > 0.2 | > 0.2 |
| Cn1c(=O)n(C2CCC(=O)NC2=O)c2cccc(C#CCN3CCN(C[C@H]4CC[C@H](n5cc(NC(=O)c6cnn7ccc(C8CCOC8)nc67)c(C(F)F)n5)CC4)CC3)c21 (stereo partly shown) [I-426] | 0.01 to 0.1 | > 0.2 |
| Cn1c(=O)n(C2CCC(=O)NC2=O)c2cccc(C#CCN3C4CC3CN(C[C@H]3CC[C@H](n5cc(NC(=O)c6cnn7ccc(N8C[C@H]9C[C@@H]8CO9)nc67)c(C(F)F)n5)CC3)C4)c21 (stereo partly shown) [I-345] | 0.01 to 0.1 | > 0.2 |
| Cn1c(=O)n(C2CCC(=O)NC2=O)c2ccc(N3CC(N4CCN([C@H]5CC[C@H](n6cc(NC(=O)c7cnn8ccc(N9C[C@H]%10C[C@@H]9CO%10)nc78)c(C(F)F)n6)CC5)CC4)C3)c(F)c21 (stereo partly shown) [I-751] | > 0.2 | > 0.2 |
| CN(c1cccc2c1n(C)c(=O)n2C1CCC(=O)NC1=O)C1CN(C[C@H]2CC[C@H](n3cc(NC(=O)c4cnn5ccc(N6C[C@H]7C[C@@H]6CO7)nc45)c(C(F)F)n3)CC2)C1 (stereo partly shown) [I-697] | > 0.2 | < 0.01 |
| Cn1c(=O)n(C2CCC(=O)NC2=O)c2cccc([C@@H]3CCN(C[C@H]4CC[C@H](n5cc6cc(NC(=O)c7cccc(C#N)n7)c(C(C)(C)O)cc6n5)CC4)C[C@@H]3F)c21 (stereo partly shown) [I-648] | > 0.2 | > 0.2 |
| COc1cc2nn([C@H]3CC[C@H](CN4CCC5(CC4)CCN(c4ccc(C6CCC(=O)NC6=O)cc4)CC5)CC3)cc2cc1NC(=O)c1cncc(C#N)c1 (stereo partly shown) [I-88] | 0.01 to 0.1 | > 0.2 |
| COCc1cncc(C(=O)Nc2cc3cn([C@H]4CC[C@H](CN5CCC6(CC5)CCN(c5cccc7c5n(C)c(=O)n7C5CCC(=O)NC5=O)CC6)CC4)nc3cc2OC)c1 (stereo partly shown) [I-191] | 0.01 to 0.1 | > 0.2 |
| Cn1c(=O)n(C2CCC(=O)NC2=O)c2cccc(C#CCOC3CCN(C[C@H]4CC[C@@H](c5ccc(C(F)F)c(NC(=O)c6cnn7ccc(N8C[C@H]9C[C@@H]8CO9)nc67)c5)CC4)CC3)c21 (stereo partly shown) [I-691] | > 0.2 | > 0.2 |
